pKi: −log10 of the molar value.
Target: T1, Substance-K receptor (Homo sapiens, UniProt P21452)
T1 sequence (P21452 whole entry): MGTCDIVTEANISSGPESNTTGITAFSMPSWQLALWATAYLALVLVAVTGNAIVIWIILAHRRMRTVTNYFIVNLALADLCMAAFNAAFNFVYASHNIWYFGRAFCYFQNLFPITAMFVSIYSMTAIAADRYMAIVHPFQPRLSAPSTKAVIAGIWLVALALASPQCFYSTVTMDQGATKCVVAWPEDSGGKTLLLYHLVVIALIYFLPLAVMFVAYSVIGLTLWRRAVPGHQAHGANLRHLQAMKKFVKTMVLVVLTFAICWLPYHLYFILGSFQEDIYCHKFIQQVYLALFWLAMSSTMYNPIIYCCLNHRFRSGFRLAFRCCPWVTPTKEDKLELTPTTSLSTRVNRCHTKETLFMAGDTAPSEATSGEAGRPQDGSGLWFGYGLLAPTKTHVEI
Assay: Binding affinity for human tachykinin receptor 2 was measured by using [125I]NKA as radio ligand

Structure (SMILES)	pKi
CC(C)(Nc1ccccc1Oc1ccccc1)C(=O)N[C@@H](Cc1ccccc1)C(=O)NCCCN1CCOCC1	< 5.52
O=C(Nc1ccccc1Oc1ccccc1)N[C@H](Cc1ccccc1)C(=O)NCCCN1CCOCC1	< 5.00
COc1ccc(Oc2ccc(NC(=O)N[C@H](Cc3ccccc3)C(=O)NCCCN3CCOCC3)cc2)cc1	< 6.00
O=C(Nc1ccc(Oc2cccc(F)c2)cc1)N[C@H](Cc1ccccc1)C(=O)NCCCN1CCOCC1	< 6.00
O=C(Nc1ccc(OCc2cccc(Cl)c2)cc1)N[C@@H](Cc1ccccc1)C(=O)NCCCN1CCOCC1	6.49
O=C(N[C@H](Cc1ccccc1)C(=O)NCCCN1CCOCC1)c1ccccc1	< 5.00
O=C(Nc1ccc(OCc2ccccc2)cc1)N[C@@H](Cc1ccccc1)C(=O)NCCCN1CCOCC1 (stereo in doubt; 32a (L))	5.92
CC(C)(Oc1ccc(-c2ccccc2)cc1)C(=O)N[C@H](Cc1ccccc1)C(=O)NCCCN1CCOCC1	5.10
O=C(Nc1ccc(OCc2ccccc2)cc1)N[C@@H](Cc1ccccc1)C(=O)NCCCN1CCOCC1 (stereo in doubt; 31a (L))	< 6.00
O=C(Nc1cccc(Oc2ccccc2)c1)N[C@H](Cc1ccccc1)C(=O)NCCCN1CCOCC1	6.52
CN(C(=O)N[C@@H](Cc1ccccc1)C(=O)NCCCN1CCOCC1)c1ccc(Oc2ccccc2)cc1	< 5.52
O=C(N[C@@H](Cc1ccccc1)C(=O)NCCCN1CCOCC1)C(c1ccccc1)c1ccccc1	5.70
CN(C(=O)N[C@H](Cc1ccccc1)C(=O)NCCCN1CCOCC1)c1cccc(Oc2cccc(F)c2)c1	< 6.00
O=C(N[C@@H](Cc1ccccc1)C(=O)NCCCN1CCOCC1)c1ccccc1	< 5.00
O=C(Nc1ccc(OCc2ccc(C(F)(F)F)cc2)cc1)N[C@H](Cc1ccccc1)C(=O)NCCCN1CCOCC1	5.30
CC(C)c1ccc(Oc2ccc(NC(=O)N[C@H](Cc3ccccc3)C(=O)NCCCN3CCOCC3)cc2)cc1	6.70
O=C(Nc1ccccc1Oc1ccccc1)N[C@@H](Cc1ccccc1)C(=O)NCCCN1CCOCC1	5.30
CC(C)c1ccc(Oc2ccc(NC(=O)N[C@@H](Cc3ccccc3)C(=O)NCCCN3CCOCC3)cc2)cc1	7.20

Structure (SMILES)	pKi
O=C(Nc1ccc(Sc2ccc(F)cc2)cc1)N[C@H](Cc1ccccc1)C(=O)NCCCN1CCOCC1	< 6.70
O=C(NCCCN1CCOCC1)[C@H](Cc1ccccc1)NC(=O)N(c1ccccc1)c1ccccc1	< 5.52
Cc1ccc(COc2ccc(NC(=O)N[C@@H](Cc3ccccc3)C(=O)NCCCN3CCOCC3)cc2)cc1	6.10
CC(C)(Oc1ccccc1-c1ccccc1)C(=O)N[C@@H](Cc1ccccc1)C(=O)NCCCN1CCOCC1	5.51
O=C(NCCCN1CCOCC1)[C@H](Cc1ccccc1)NC(=O)N1CCCC(O)(c2ccccc2)C1 (stereo not given in full)	5.20
O=C(NCCCN1CCOCC1)[C@@H](Cc1ccccc1)NC(=O)N1CCCC(O)(c2ccccc2)C1 (stereo not given in full)	< 5.00
CC(C)(C)c1ccc(Oc2ccc(NC(=O)N[C@H](Cc3ccccc3)C(=O)NCCCN3CCOCC3)cc2)cc1	6.92
O=C(Nc1ccc(Oc2cccc(F)c2)cc1)N[C@@H](Cc1ccccc1)C(=O)NCCCN1CCOCC1	6.70
CN(Cc1ccccc1)C(=O)N[C@H](Cc1ccccc1)C(=O)NCCCN1CCOCC1	5.52
COc1ccc(Oc2ccc(NC(=O)N[C@@H](Cc3ccccc3)C(=O)NCCCN3CCOCC3)cc2)cc1	6.51
O=C(Nc1ccccc1)N[C@@H](Cc1ccccc1)C(=O)NCCCN1CCOCC1	< 5.00
O=C(N[C@@H](Cc1ccccc1)C(=O)NCCCN1CCOCC1)c1cccc(-c2ccccc2)c1	5.70
O=C(Nc1ccc(Oc2ccccc2)cc1)N[C@@H](Cc1ccccc1)C(=O)NCCCN1CCOCC1	6.00
CC(C)(Oc1ccccc1-c1ccccc1)C(=O)N[C@H](Cc1ccccc1)C(=O)NCCCN1CCOCC1	5.30
CC(C)(Oc1ccc(F)cc1)C(=O)N[C@@H](Cc1ccccc1)C(=O)NCCCN1CCOCC1	< 6.00
O=C(Nc1ccc(OCc2cc(F)cc(F)c2)cc1)N[C@@H](Cc1ccccc1)C(=O)NCCCN1CCOCC1	6.30
CC(C)(Oc1ccc(Cl)cc1)C(=O)N[C@H](Cc1ccccc1)C(=O)NCCCN1CCOCC1	6.22

Reference: ChEMBL document CHEMBL1144272, “Generation of a new class of hNK(2) receptor ligands using the 'fragment approach'” (Bioorg Med Chem Lett, 2005)
